This is an account of results in the PolyMetriX glass transition set.

The structures appear in SMILES notation.

`*C(=O)Nc1ccc(Oc2ccc(C(C)(C)c3ccc(Oc4ccc(NC(=O)c5ccc6c(c5)C(=O)N(c5ccc(-c7sc(-c8ccc(N9C(=O)c%10ccc(*)cc%10C9=O)cc8)c(-c8ccccc8)c7-c7ccccc7)cc5)C6=O)cc4)cc3)cc2)cc1` (repeat unit) came in with a glass transition temperature of 287.00 °C.

The compound `*C(=O)c1ccc2c(c1)C(=O)N(c1ccc(Oc3ccc(C(C)(C)c4ccccc4)cc3)c(N3C(=O)c4ccc(*)cc4C3=O)c1)C2=O` (repeat unit) returned a glass transition temperature of 267.00 °C.

In turn, `*C(=O)c1ccc2c(c1)C(=O)N(c1ccc(Oc3ccc(S(=O)(=O)c4ccc(C)cc4)cc3)c(N3C(=O)c4ccc(*)cc4C3=O)c1)C2=O` (repeat unit) displayed a glass transition temperature of 293.00 °C.

As for `*Oc1c(C(C)C)cc(C(=O)c2cccc(C(=O)c3ccc(*)cc3)c2)cc1C(C)C` (repeat unit), the glass transition temperature came to 132.00 °C.

Consider `*Oc1ccc(-c2ccc(-c3ccc(Oc4ccc(C(=O)c5cccc(C(=O)c6ccc(*)cc6)c5)cc4)cc3)cc2)cc1` (repeat unit), for which the glass transition temperature was found to be 174.00 °C.

Turning to `*Oc1ccc(-c2ccc(Oc3ccc(Oc4ccc(S(=O)(=O)c5ccc(Oc6ccc(*)cc6)cc5)cc4)cc3)c3ccccc23)c2ccccc12` (repeat unit), the glass transition temperature amounted to 214.00 °C.

`*Oc1ccc(C(C)(C)c2ccc(Oc3ccc(C(=O)c4cccc5cccc(C(=O)c6ccc(*)cc6)c45)cc3)cc2)cc1` (repeat unit) registered a glass transition temperature of 210.50 °C.

`*Oc1ccc(C(C)(C)c2ccc(Oc3ccc(C(=O)c4ccccc4-c4ccccc4C(=O)c4ccc(*)cc4)cc3)cc2)cc1` (repeat unit) yielded a glass transition temperature of 172.00 °C.

`*Oc1ccc(C(c2ccc(Oc3ccc(C(=O)c4cccc(-c5cccc(C(=O)c6ccc(*)cc6)c5)c4)cc3)cc2)(C(F)(F)F)C(F)(F)F)cc1` (repeat unit) returned a glass transition temperature of 159.00 °C.

On to `*Oc1ccc(C2(c3ccc(Oc4ccc(C(=O)c5cccc(-c6cccc(C(=O)c7ccc(*)cc7)c6)c5)cc4)cc3)c3ccccc3-c3ccccc32)cc1` (repeat unit), for which the glass transition temperature is 212.00 °C.

Compound `*Oc1ccc(C2(c3ccc(Oc4ccc(C(=O)c5cccc(C(=O)c6ccc(*)cc6)c5)cc4)c(C)c3)c3ccccc3-c3ccccc32)cc1C` (repeat unit) returned a glass transition temperature of 217.00 °C.

In turn, `*Oc1ccc(N(c2ccccc2)c2ccc(-c3ccc(N(c4ccccc4)c4ccc(*)cc4)cc3)cc2)cc1` (repeat unit) returned a glass transition temperature of 218.00 °C.

As for `*Oc1ccc(NC(=O)c2cccc(C(=O)Nc3ccc(Oc4ccc(C(C)(C)c5cccc(C(C)(C)c6ccc(*)cc6)c5)cc4)cc3)c2)cc1` (repeat unit), the glass transition temperature turned out to be 180.00 °C.

The compound `*Oc1ccc(Nc2ccc(S(=O)(=O)c3ccc(Nc4ccc(Oc5ccc(C(C)(C)c6ccc(*)cc6)cc5)cc4)cc3)cc2)cc1` (repeat unit) registered a glass transition temperature of 145.00 °C.

For the compound `*Oc1ccc(Oc2ccc(Oc3ccc(S(=O)(=O)c4ccc(*)cc4)cc3)cc2)cc1` (repeat unit), the glass transition temperature came to 192.00 °C.

Turning to `*Oc1ccc(Oc2ccc(S(=O)(=O)c3ccc(*)cc3)cc2)cc1` (repeat unit), the glass transition temperature was 210.00 °C.

`*Oc1ccc(Oc2ccc(S(=O)(=O)c3ccc(-c4ccc(-c5ccc(S(=O)(=O)c6ccc(*)cc6)cc5)cc4)cc3)cc2)cc1` (repeat unit) had a glass transition temperature of 259.00 °C.

For `*Oc1ccc(Oc2ccc(S(=O)c3ccc(Oc4ccc(Oc5cccc(*)n5)cc4)cc3)cc2)cc1` (repeat unit), the glass transition temperature worked out at 138.00 °C.

As to `*Oc1ccc(P(C)(=O)c2ccc(Oc3ccc(C(C)(C)c4ccc(*)cc4)cc3)cc2)cc1` (repeat unit), the glass transition temperature was 192.00 °C.

On to `*Oc1ccc(S(=O)(=O)c2ccc(*)cc2)cc1` (repeat unit), for which the glass transition temperature came to 225.00 °C.

Take `*Oc1ccc(S(=O)(=O)c2ccc(-c3ccc(-c4ccc(S(=O)(=O)c5ccc(*)cc5)cc4)cc3)cc2)cc1` (repeat unit): the glass transition temperature turned out to be 311.00 °C.

Turning to `*Oc1ccc(S(=O)(=O)c2ccc(Oc3ccc(/C=C4\CCC/C(=C\c5ccc(Oc6ccc(S(=O)(=O)c7ccc(Oc8ccc(C(C)(C)c9ccc(*)cc9)cc8)cc7)cc6)cc5)C4=O)cc3)cc2)cc1` (repeat unit), the glass transition temperature turned out to be 194.00 °C.

Consider `*Oc1ccc(S(=O)(=O)c2ccc(Oc3ccc(C(C)(C)c4ccc(*)c(N)c4)cc3N)cc2)c(N)c1` (repeat unit), for which the glass transition temperature is 237.10 °C.

On to `*Oc1ccc(S(=O)(=O)c2ccc(Oc3ccc(C(C)(C)c4ccc(*)c(N)c4)cc3N)cc2)cc1` (repeat unit), for which the glass transition temperature came to 230.40 °C.

Turning to `*Oc1ccc(S(=O)(=O)c2ccc(Oc3ccc(C(C)(CCC(=O)O)c4ccc(*)cc4)cc3)cc2)cc1` (repeat unit), the glass transition temperature turned out to be 163.00 °C.

The compound `*Oc1ccc(S(=O)(=O)c2ccc(Oc3ccc(C(C)(c4ccccc4)c4ccc(*)cc4)cc3)cc2)cc1` (repeat unit) registered a glass transition temperature of 207.00 °C.

For `*Oc1ccc(S(=O)(=O)c2ccc(Oc3ccc(C(c4ccc(*)c(Br)c4)(C(F)(F)F)C(F)(F)F)cc3Br)cc2)cc1` (repeat unit), the glass transition temperature was 197.50 °C.

The compound `*Oc1ccc(S(=O)(=O)c2ccc(Oc3ccc(C(c4ccc(*)c([Si](C)(C)C)c4)(C(F)(F)F)C(F)(F)F)cc3[Si](C)(C)C)cc2)cc1` (repeat unit) returned a glass transition temperature of 168.60 °C.

`*Oc1ccc(S(=O)(=O)c2ccc(Oc3ccc(C(c4ccc(*)cc4)(C(F)(F)F)C(F)(F)F)cc3)cc2C(O)(C(F)(F)F)C(F)(F)F)c(C(O)(C(F)(F)F)C(F)(F)F)c1` (repeat unit) came in with a glass transition temperature of 148.00 °C.

The compound `*Oc1ccc(S(=O)(=O)c2ccc(Oc3ccc(C(c4ccccc4)(c4ccccc4)c4ccc(*)cc4)cc3)cc2)cc1` (repeat unit) showed a glass transition temperature of 230.00 °C.

On to `*Oc1ccc(S(=O)(=O)c2ccc(Oc3ccc(C4(c5ccc(*)cc5)C5CC6CC(C5)CC4C6)cc3)cc2)cc1` (repeat unit), for which the glass transition temperature worked out at 297.00 °C.

`*Oc1ccc(S(=O)(=O)c2ccc(Oc3ccc(C4(c5ccc(*)cc5)CCCC4)cc3)cc2)cc1` (repeat unit) displayed a glass transition temperature of 230.00 °C.

For `*Oc1ccc(S(=O)(=O)c2ccc(Oc3ccc(Cc4ccc(*)cc4)cc3)cc2)cc1` (repeat unit), the glass transition temperature is 189.6 °C.

Compound `*c1ccc(-c2ccc(-c3ccc(-c4ccc(-c5ccc6c(c5)C(=O)N(c5ccc(Oc7ccc(C(C)(C)c8ccc(Oc9ccc(N%10C(=O)c%11ccc(*)cc%11C%10=O)cc9)cc8)cc7)cc5)C6=O)cc4)cc3)cc2)cc1` (repeat unit) showed a glass transition temperature of 236.00 °C.

`*c1ccc(-c2nc3ccc(Oc4ccc(Oc5ccc(P(=O)(c6ccccc6)c6ccc(Oc7ccc(Oc8ccc9nc(*)c(-c%10ccccc%10)nc9c8)cc7)cc6)cc5)cc4)cc3nc2-c2ccccc2)cc1` (repeat unit) gave a glass transition temperature of 248.00 °C.

`*c1ccc(Oc2ccc(C(=O)c3cccc(C(=O)c4ccc(Oc5ccc(-c6c7c(c(*)c8ccccc68)C(=O)N(c6ccc(F)cc6)C7=O)cc5)cc4)c3)cc2)cc1` (repeat unit) registered a glass transition temperature of 243.00 °C.

In the case of `*c1ccc(Oc2ccc(C(=O)c3cccc(C(=O)c4ccc(Oc5ccc(-c6nc(-c7ccccc7)[nH]c6*)cc5)cc4)c3)cc2)cc1` (repeat unit), the glass transition temperature is 230.00 °C.

In the case of `*c1ccc(Oc2ccc(C(C)(C)c3ccc(Oc4ccc(N5C(=O)CC(=O)N(*)C5=S)cc4)cc3)cc2)cc1` (repeat unit), the glass transition temperature is 150.00 °C.

`*c1ccc(Oc2ccc(C(C)(C)c3ccc(Oc4ccc(N5C(=O)c6ccc(Oc7ccc8c(c7)C(=O)N(*)C8=O)cc6C5=O)cc4)cc3)cc2)cc1` (repeat unit): the glass transition temperature is 227.50 °C.

`*c1ccc(Oc2ccc(C(c3ccc(Oc4ccc(-c5cccc(*)n5)cc4C(F)(F)F)cc3)(C(F)(F)F)C(F)(F)F)cc2)c(C(F)(F)F)c1` (repeat unit) showed a glass transition temperature of 153.00 °C.

`*c1ccc(Oc2ccc(C(c3ccc(Oc4ccc(-c5nnc(*)c6c(-c7ccc(F)cc7)c(-c7ccc(F)cc7)c(-c7ccc(F)cc7)c(-c7ccc(F)cc7)c56)cc4)cc3)(C(F)(F)F)C(F)(F)F)cc2)cc1` (repeat unit) displayed a glass transition temperature of 288.00 °C.

Compound `*c1ccc(Oc2ccc(C(c3ccc(Oc4ccc(-c5nnc(*)n5-c5ccc(S(=O)(=O)c6ccccc6)cc5)cc4)cc3)(C(F)(F)F)C(F)(F)F)cc2)cc1` (repeat unit) displayed a glass transition temperature of 211.00 °C.

The compound `*c1ccc(Oc2ccc(C3(c4ccc(Oc5ccc(-c6nc(-c7ccccn7)nnc6*)cc5)cc4)c4ccccc4-c4ccccc43)cc2)cc1` (repeat unit) registered a glass transition temperature of 277.00 °C.

In turn, `*c1ccc(Oc2ccc(C3(c4ccc(Oc5ccc(N6C(=O)c7ccc(Oc8ccc(C9(c%10ccc(Oc%11ccc%12c(c%11)C(=O)N(*)C%12=O)cc%10)CCCCCCCCCCC9)cc8)cc7C6=O)cc5)cc4)CCC(C(C)(C)C)CC3)cc2)cc1` (repeat unit) came in with a glass transition temperature of 254.00 °C.

`*c1ccc(Oc2ccc(N3C(=O)CC4C(CC5C(=O)N(*)C(=O)C54)C3=O)cc2)cc1` (repeat unit) registered a glass transition temperature of 350.00 °C.

`*c1ccc(Oc2ccc(Oc3ccc(-n4c(=O)c5cc6c(=O)n(*)c(=O)c6cc5c4=O)cc3)cc2)c(C(F)(F)F)c1` (repeat unit) returned a glass transition temperature of 272.20 °C.

Compound `*c1ccc(Oc2ccc(Oc3ccc(-n4c(=O)c5cc6c(=O)n(*)c(=O)c6cc5c4=O)cc3)cc2-c2ccccc2)cc1` (repeat unit) had a glass transition temperature of 271.00 °C.

Compound `*c1ccc(Oc2ccc(S(=O)(=O)c3ccc(Oc4ccc(C5(*)OC(=O)c6ccccc65)cc4C)cc3)cc2)c(C)c1` (repeat unit) had a glass transition temperature of 245.00 °C.

`*c1cccc(C(=O)Nc2ccc(Oc3ccc(C(C)(C)c4ccc(Oc5ccc(NC(=O)c6cccc(N7C(=O)c8ccc(-c9cccc%10c9C(=O)N(*)C%10=O)cc8C7=O)c6)cc5)cc4)cc3)cc2)c1` (repeat unit) yielded a glass transition temperature of 261.00 °C.

`*c1cccc(C(=O)c2cccc(-n3c(=O)c4cc5c(=O)n(*)c(=O)c5cc4c3=O)c2)c1` (repeat unit): the glass transition temperature was 321.00 °C.
